# Results as given in US8975398B2, “NAMPT inhibitors” (AbbVie Inc., priority 2012, dated 2015).
# Legend:
# [1] = molecular target: NAMPT (Homo sapiens, UniProt P43490); test: Time-Resolved Fluorescence Resonance Energy Transfer (TR-FRET) Binding Assay of NAMPT with PRPP; conditions: 2 nM NAMPT, 2 nM probe, 200 uM PRPP and 2.5 mM ATP, equilibrated 16 hours
# Outline: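 Final mix: 2 nM NAMPT, 2 nM probe, 1 nM Tb-anti-His antibody, 200 uM PRPP, 2.5 mM ATP, 2% DMSO in 1× assay buffer. Equilibrated 16 hours before TR-FRET read, allowing possible enzymatic modification of compounds.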
# [2] = molecular target: NAMPT (human, recombinant, C-terminally His-tagged) (Homo sapiens, UniProt P43490); test: Time-Resolved Fluorescence Resonance Energy Transfer (TR-FRET) Binding Assay of NAMPT; conditions: 6.8 nM NAMPT, 200 nM probe, equilibrated 3 hours, absence of substrates
# NAMPT (human, recombinant, C-terminally His-tagged), sequence (P43490 whole entry): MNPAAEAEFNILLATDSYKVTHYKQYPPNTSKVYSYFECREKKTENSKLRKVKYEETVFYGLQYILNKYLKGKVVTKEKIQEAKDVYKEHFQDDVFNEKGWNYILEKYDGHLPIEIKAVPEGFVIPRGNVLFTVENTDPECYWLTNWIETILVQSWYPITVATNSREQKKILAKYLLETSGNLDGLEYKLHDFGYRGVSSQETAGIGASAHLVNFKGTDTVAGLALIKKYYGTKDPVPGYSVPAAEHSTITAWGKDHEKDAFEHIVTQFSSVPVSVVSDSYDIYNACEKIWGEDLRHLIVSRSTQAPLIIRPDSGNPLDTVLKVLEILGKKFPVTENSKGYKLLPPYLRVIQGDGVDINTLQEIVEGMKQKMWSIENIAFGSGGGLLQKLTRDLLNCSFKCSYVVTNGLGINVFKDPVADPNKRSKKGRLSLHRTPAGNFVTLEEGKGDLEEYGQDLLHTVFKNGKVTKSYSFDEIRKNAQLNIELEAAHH
# Outline: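 Recombinant C-terminally His-tagged human NAMPT (6.8 nM) incubated 3 h at room temperature with 200 nM Oregon Green 488–labelled nicotinamide-competitive probe and 1 nM Tb-anti-His antibody in HEPES pH 7.5, 2% DMSO. TR-FRET ratio Em520/Em495 normalized to controls; IC50 from four-parameter logistic fit.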
# NAMPT, sequence (P43490 whole entry): as above
IC50 [1],IC50 [2],Structure (SMILES)
0.526 nM,955 nM,"O=C(Nc1ccc(OC2CCN(CCC3CC3)CC2)cc1)C1CN(c2cccnc2)C1 [Example 82, N-(4-{[1-(2-cyclopropylethyl)piperidin-4-yl]oxy}phenyl)-1-(pyridin-3-yl)azetidine-3-carboxamide]"
0.342 nM,109 nM,"O=C(Nc1ccc(OC2CCN(C(=O)[C@@H]3CCCO3)CC2)cc1)C1CN(c2cccnc2)C1 [Example 33, 1-(pyridin-3-yl)-N-[4-({1-[(2S)-tetrahydrofuran-2-ylcarbonyl]piperidin-4-yl}oxy)phenyl]azetidine-3-carboxamide]"
53.2 nM,120 nM,"CC(C)CC(=O)N1CCC(Oc2ccc(NC(=O)C3CN(c4ccnnc4)C3)cc2)CC1 [Example 266, N-(4-{[1-(3-methylbutanoyl)piperidin-4-yl]oxy}phenyl)-1-(pyridazin-4-yl)azetidine-3-carboxamide]"
0.675 nM,33.7 nM,"O=C(Nc1ccc(OC2CCN(C(=O)c3cccs3)CC2)cc1)C1CN(c2cccnc2)C1 [Example 61, 1-(pyridin-3-yl)-N-(4-{[1-(thiophen-2-ylcarbonyl)piperidin-4-yl]oxy}phenyl)azetidine-3-carboxamide]"
0.9 nM,46.5 nM,"CCC(C)CC(=O)N1CCC(Oc2ccc(NC(=O)C3CN(c4cccnc4)C3)cc2)CC1 (stereo not shown) [Example 38, N-(4-{[1-(3-methylpentanoyl)piperidin-4-yl]oxy}phenyl)-1-(pyridin-3-yl)azetidine-3-carboxamide]"
48.3 nM,143 nM,"O=C(Nc1ccc(OC2CCN(C(=O)C3CC3)CC2)cc1)C1CN(c2ccnnc2)C1 [Example 301, N-(4-{[1-(cyclopropylcarbonyl)piperidin-4-yl]oxy}phenyl)-1-(pyridazin-4-yl)azetidine-3-carboxamide]"
1.08 nM,87.3 nM,"CC(C)CC(=O)N1CCC(Oc2ccc(NC(=O)C3CN(c4cccnc4)C3)cc2)CC1 [Example 45, N-(4-{[1-(3-methylbutanoyl)piperidin-4-yl]oxy}phenyl)-1-(pyridin-3-yl)azetidine-3-carboxamide]"
0.803 nM,86.5 nM,"CCCC(=O)N1CCC(Oc2ccc(NC(=O)C3CN(c4cccnc4)C3)cc2)CC1 [Example 43, N-{4-[(1-butanoylpiperidin-4-yl)oxy]phenyl}-1-(pyridin-3-yl)azetidine-3-carboxamide]"
1.27 nM,1390 nM,"CC(C)(C)CCN1CCC(c2ccc(NC(=O)C3CN(c4cccnc4)C3)cc2)CC1 [Example 87, N-{4-[1-(3,3-dimethylbutyl)piperidin-4-yl]phenyl}-1-(pyridin-3-yl)azetidine-3-carboxamide]"
1.01 nM,138 nM,"CCOCC(=O)N1CCC(Oc2ccc(NC(=O)C3CN(c4cccnc4)C3)cc2)CC1 [Example 44, N-(4-{[1-(ethoxyacetyl)piperidin-4-yl]oxy}phenyl)-1-(pyridin-3-yl)azetidine-3-carboxamide]"
1.13 nM,3720 nM,"CCCN1CCC(Oc2ccc(NC(=O)C3CN(c4cccnc4)C3)cc2)CC1 [Example 81, N-{4-[(1-propylpiperidin-4-yl)oxy]phenyl}-1-(pyridin-3-yl)azetidine-3-carboxamide]"
90 nM,383 nM,"CC(=O)N1CCC(Oc2ccc(NC(=O)C3CN(c4ccnnc4)C3)cc2)CC1 [Example 282, N-{4-[(1-acetylpiperidin-4-yl)oxy]phenyl}-1-(pyridazin-4-yl)azetidine-3-carboxamide]"
0.902 nM,1410 nM,"CCCC(C)CN1CCC(c2ccc(NC(=O)C3CN(c4cccnc4)C3)cc2)CC1 (stereo not shown) [Example 90, N-{4-[1-(2-methylpentyl)piperidin-4-yl]phenyl}-1-(pyridin-3-yl)azetidine-3-carboxamide]"

# More lines, now with the values behind:
Structure (SMILES),IC50 [1],IC50 [2]
"O=C(Nc1ccc(OC2CN(C(=O)C3CCOC3)C2)cc1)C1CN(c2ccnnc2)C1 (stereo not shown) [Example 208, 1-(pyridazin-4-yl)-N-(4-{[1-(tetrahydrofuran-3-ylcarbonyl)azetidin-3-yl]oxy}phenyl)azetidine-3-carboxamide]",49.6 nM,117 nM
"O=C(Nc1ccc(OC2CCN(C(=O)c3cccc(C(F)(F)F)c3)CC2)cc1)C1CN(c2ccnnc2)C1 [Example 285, 1-(pyridazin-4-yl)-N-[4-({1-[3-(trifluoromethyl)benzoyl]piperidin-4-yl}oxy)phenyl]azetidine-3-carboxamide]",86.2 nM,149 nM
"O=C(Nc1ccc(OC2CN(C(=O)C3CCCO3)C2)cc1)C1CN(c2ccnnc2)C1 (stereo not shown) [Example 262, 1-(pyridazin-4-yl)-N-(4-{[1-(tetrahydrofuran-2-ylcarbonyl)azetidin-3-yl]oxy}phenyl)azetidine-3-carboxamide]",34.3 nM,130 nM
"COc1ccc(C(=O)N2CCC(c3ccc(NC(=O)C4CN(c5cccnn5)C4)cc3)CC2)cc1 [Example 347, N-{4-[1-(4-methoxybenzoyl)piperidin-4-yl]phenyl}-1-(pyridazin-3-yl)azetidine-3-carboxamide]",0.94 nM,66.2 nM
"O=C(Nc1ccc(OC2CN(C(=O)c3ccc(F)cc3F)C2)cc1)C1CN(c2ccnnc2)C1 [Example 200, N-(4-{[1-(2,4-difluorobenzoyl)azetidin-3-yl]oxy}phenyl)-1-(pyridazin-4-yl)azetidine-3-carboxamide]",34.4 nM,33.1 nM
"O=C(Nc1ccc(OC2CCN(C(=O)CC(F)(F)F)CC2)cc1)C1CN(c2ccnnc2)C1 [Example 268, 1-(pyridazin-4-yl)-N-(4-{[1-(3,3,3-trifluoropropanoyl)piperidin-4-yl]oxy}phenyl)azetidine-3-carboxamide]",42.1 nM,119 nM
"CCC(=O)N1CCC(c2ccc(NC(=O)C3CN(c4cccnc4C)C3)cc2)CC1 [Example 181, 1-(2-methylpyridin-3-yl)-N-[4-(1-propanoylpiperidin-4-yl)phenyl]azetidine-3-carboxamide]",128 nM,284 nM
"CC(C)(O)C(=O)N1CCC(Oc2ccc(C(=O)NC3CN(c4cccnc4)C3)cc2)CC1 [Example 24, 4-{[1-(2-hydroxy-2-methylpropanoyl)piperidin-4-yl]oxy}-N-[1-(pyridin-3-yl)azetidin-3-yl]benzamide]",0.861 nM,5880 nM
"O=C(Nc1ccc(OC2CCN(C(=O)C3CCCO3)CC2)cc1)C1CN(c2cccnn2)C1 (stereo not shown) [Example 221, 1-(pyridazin-3-yl)-N-(4-{[1-(tetrahydrofuran-2-ylcarbonyl)piperidin-4-yl]oxy}phenyl)azetidine-3-carboxamide]",0.576 nM,164 nM
"Cc1cnc(C(=O)N2CCC(c3ccc(NC(=O)C4CN(c5cccnn5)C4)cc3)CC2)cn1 [Example 378, N-(4-{1-[(5-methylpyrazin-2-yl)carbonyl]piperidin-4-yl}phenyl)-1-(pyridazin-3-yl)azetidine-3-carboxamide]",0.632 nM,77.1 nM
"O=C(Nc1ccc(C2CCN(C(=O)c3ccc(F)cc3)CC2)cc1)C1CN(c2cccnn2)C1 [Example 349, N-{4-[1-(4-fluorobenzoyl)piperidin-4-yl]phenyl}-1-(pyridazin-3-yl)azetidine-3-carboxamide]",0.738 nM,59.5 nM
"Cc1ccncc1N1CC(C(=O)Nc2ccc(OC3CCN(C(=O)CC4CCOCC4)CC3)cc2)C1 [Example 5, 1-(4-methylpyridin-3-yl)-N-(4-{[1-(tetrahydro-2H-pyran-4-ylacetyl)piperidin-4-yl]oxy}phenyl)azetidine-3-carboxamide]",10.2 nM,107 nM
"O=C(Nc1ccc(C2CCN(C(=O)c3ccc(Cl)cc3Cl)CC2)cc1)C1CN(c2cccnn2)C1 [Example 362, N-{4-[1-(2,4-dichlorobenzoyl)piperidin-4-yl]phenyl}-1-(pyridazin-3-yl)azetidine-3-carboxamide]",0.832 nM,15.2 nM
"Cc1ccc(C)c(C(=O)N2CCC(c3ccc(NC(=O)C4CN(c5cccnn5)C4)cc3)CC2)c1 [Example 359, N-{4-[1-(2,5-dimethylbenzoyl)piperidin-4-yl]phenyl}-1-(pyridazin-3-yl)azetidine-3-carboxamide]",0.869 nM,21.3 nM
"Cc1ncccc1N1CC(C(=O)Nc2ccc(C3CCN(C(=O)c4ccc(C(F)(F)F)cc4)CC3)cc2)C1 [Example 157, 1-(2-methylpyridin-3-yl)-N-(4-{1-[4-(trifluoromethyl)benzoyl]piperidin-4-yl}phenyl)azetidine-3-carboxamide]",192 nM,1070 nM
"Cc1ccc(C(=O)N2CCC(c3ccc(NC(=O)C4CN(c5cccnn5)C4)cc3)CC2)cc1C [Example 360, N-{4-[1-(3,4-dimethylbenzoyl)piperidin-4-yl]phenyl}-1-(pyridazin-3-yl)azetidine-3-carboxamide]",0.782 nM,22 nM
"CCC(C)(C)C(=O)N1CCC(c2ccc(NC(=O)C3CN(c4cccnc4C)C3)cc2)CC1 [Example 193, N-{4-[1-(2,2-dimethylbutanoyl)piperidin-4-yl]phenyl}-1-(2-methylpyridin-3-yl)azetidine-3-carboxamide]",54 nM,40.2 nM
"O=C(Nc1ccc(C2CCN(C(=O)C3CCCC3)CC2)cc1)C1CN(c2cccnc2)C1 [Example 138, N-{4-[1-(cyclopentylcarbonyl)piperidin-4-yl]phenyl}-1-(pyridin-3-yl)azetidine-3-carboxamide]",0.445 nM,21.8 nM
"CC(=O)N1CCC(c2ccc(NC(=O)C3CN(c4cccnc4C)C3)cc2)CC1 [Example 178, N-[4-(1-acetylpiperidin-4-yl)phenyl]-1-(2-methylpyridin-3-yl)azetidine-3-carboxamide]",65.2 nM,247 nM
